In the supplement of paper PMC10307832:

Columns and labels:
Assay in all cases: relative viability (nuclei count vs DMSO), 5 days (fraction); higher = more cells survive
[1] = compound: COc1ncc(-c2ccc3nccc(-c4ccnnc4)c3c2)cc1NS(=O)(=O)c1ccc(F)cc1F [Omipalisib]
Outline: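 Only plates meeting two conditions passed: control CV below 25% and at least one doubling. Lung cancer cell lines, kept overnight at 37 °C in 1536-well plates, were pinned with five library-drug doses (not always all listed) √10 apart on vehicle-anchored plates and grown 5 days without medium change. A one-step fix, permeabilisation and Hoechst stain preceded 4× imaging and MetaXpress nuclear counting. Viability equals treated-well nuclei divided by vehicle-well nuclei, as the median over plates.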

[2] = compound: COc1ncc(-c2ccc3nccc(-c4ccnnc4)c3c2)cc1NS(=O)(=O)c1ccc(F)cc1F [Omipalisib] + CC(C)C[C@H](NC(=O)[C@H](Cc1ccccc1)NC(=O)c1cnccn1)B(O)O [Bortezomib] (partner 0.002 µM)
Outline: (§1)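 Lung cancer cell lines were pin-tool dosed in 1536-well plates on the day after seeding, with either a lone drug or a fixed anchor-drug dose plus five library-drug doses (not always all listed) in √10 steps. Nuclei were counted on 4× images after 5 days. Relative viability is the ratio of treated-well to vehicle-well nuclei counts, with each value a median of duplicate plates.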

[3] = compound: COc1ncc(-c2ccc3nccc(-c4ccnnc4)c3c2)cc1NS(=O)(=O)c1ccc(F)cc1F [Omipalisib] + O=C(CCCCCCC(=O)Nc1ccccc1)NO [Vorinostat] (partner 1 µM)
Outline: as §1

[4] = compound: COc1ncc(-c2ccc3nccc(-c4ccnnc4)c3c2)cc1NS(=O)(=O)c1ccc(F)cc1F [Omipalisib] + N=C(N)NC(=N)NCCc1ccccc1 [Phenformin] (partner 250 µM)
Outline: as §1

[5] = compound: COc1ncc(-c2ccc3nccc(-c4ccnnc4)c3c2)cc1NS(=O)(=O)c1ccc(F)cc1F [Omipalisib] + Nc1ncn([C@H]2C[C@H](O)[C@@H](CO)O2)c(=O)n1 [Decitabine] (partner 2 µM)
Outline: as §1

[6] = compound: COc1ncc(-c2ccc3nccc(-c4ccnnc4)c3c2)cc1NS(=O)(=O)c1ccc(F)cc1F [Omipalisib] + CC(=O)Nc1cccc(-n2c(=O)n(C3CC3)c(=O)c3c(Nc4ccc(I)cc4F)n(C)c(=O)c(C)c32)c1 [Trametinib] (partner 0.02 µM)
Outline: as §1

Cell Line | relative viability ([1]; 0.0003 µM) | relative viability ([1]; 0.003 µM) | relative viability ([1]; 0.03 µM) | relative viability ([2]; first compound 0.0003 µM) | relative viability ([2]; first compound 0.003 µM) | relative viability ([2]; first compound 0.03 µM) | relative viability ([3]; first compound 0.0003 µM) | relative viability ([3]; first compound 0.003 µM) | relative viability ([3]; first compound 0.03 µM) | relative viability ([4]; first compound 0.0003 µM) | relative viability ([4]; first compound 0.003 µM) | relative viability ([4]; first compound 0.03 µM) | relative viability ([5]; first compound 0.0003 µM) | relative viability ([5]; first compound 0.003 µM) | relative viability ([5]; first compound 0.03 µM) | relative viability ([6]; first compound 0.0003 µM) | relative viability ([6]; first compound 0.003 µM) | relative viability ([6]; first compound 0.03 µM)
NCI-H661 | 1 | 0.923 | 0.82 | 0.69 | 0.595 | 0.314 | 0.78 | 0.782 | 0.785 | 0.264 | 0.264 | 0.224 | 0.522 | 0.453 | 0.422 | 0.605 | 0.454 | 0.409
HOP-62 | 1.03 | 1.06 | 0.753 | 0.803 | 0.617 | 0.625 | 0.563 | 0.511 | 0.323 | 0.659 | 0.718 | 0.639 | 0.211 | 0.264 | 0.199 | 0.372 | 0.248 | 0.198
NCI-H1993 | 0.806 | 0.632 | 0.623 | 0.894 | 0.699 | 0.542 | 0.788 | 0.162 | 0.378 | 0.558 | 0.552 | 0.586 | 0.6 | 0.483 | 0.447 | 0.423 | 0.584 | 0.509
A-427 | 0.994 | 0.866 | 0.828 | 0.969 | 0.903 | 0.913 | 0.885 | 0.877 | 0.867 | 0.382 | 0.224 | 0.337 | 0.538 | 0.443 | 0.417 | 0.665 | 0.38 | 0.358
201T | 0.986 | 1.03 | 0.729 | 1.13 | 1.11 | 0.777 | 1.01 | 0.855 | 0.453 | 0.47 | 0.421 | 0.338 | 0.816 | 0.809 | 0.53 | 0.681 | 0.658 | 0.465
SK-LU-1 | 0.914 | 0.778 | 0.569 | 1.1 | 0.724 | 0.511 | 0.758 | 0.561 | 0.535 | 0.47 | 0.299 | 0.273 | 0.633 | 0.548 | 0.494 | 0.411 | 0.36 | 0.253
NCI-H1651 | 0.928 | 0.851 | 0.595 | 0.872 | 0.86 | 0.747 | 0.517 | 0.457 | 0.437 | 0.274 | 0.307 | 0.214 | 0.528 | 0.476 | 0.446 | 0.712 | 0.711 | 0.535
LC-2-ad | 0.942 | 0.831 | 0.556 | 1.11 | 0.978 | 0.888 | 0.67 | 0.575 | 0.303 | 0.438 | 0.368 | 0.258 | 0.812 | 0.739 | 0.63 | 0.86 | 0.754 | 0.605
NCI-H1734 | 0.918 | 0.648 | 0.397 | 0.937 | 0.544 | 0.276 | 0.683 | 0.466 | 0.35 | 0.341 | 0.265 | 0.183 | 0.442 | 0.331 | 0.347 | 0.54 | 0.362 | 0.288
COR-L 105 | 0.937 | 0.976 | 0.535 | 0.89 | 0.656 | 0.411 | 0.853 | 0.809 | 0.568 | 0.468 | 0.458 | 0.289 | 0.593 | 0.589 | 0.556 | 0.469 | 0.423 | 0.414
EKVX | 0.985 | 0.79 | 0.44 | 1.01 | 0.777 | 0.401 | 0.709 | 0.588 | 0.256 | 0.228 | 0.254 | 0.15 | 0.305 | 0.289 | 0.238 | 0.42 | 0.347 | 0.152
NCI-H838 | 0.957 | 0.737 | 0.453 | 0.743 | 0.652 | 0.234 | 0.678 | 0.639 | 0.557 | 0.566 | 0.397 | 0.195 | 0.471 | 0.391 | 0.268 | 0.494 | 0.389 | 0.199
LOU-NH91 | 0.999 | 0.784 | 0.65 | 0.543 | 0.517 | 0.453 | 1.02 | 0.679 | 0.582 | 0.738 | 0.522 | 0.504 | 0.857 | 0.747 | 0.665 | 0.788 | 0.666 | 0.593
NCI-H2347 | 0.972 | 0.978 | 0.579 | 1.02 | 1.06 | 0.663 | 0.638 | 0.475 | 0.368 | 0.329 | 0.226 | 0.244 | 0.538 | 0.523 | 0.464 | 0.245 | 0.252 | 0.215
NCI-H1915 | 1.04 | 0.996 | 0.952 | 1.02 | 0.978 | 0.97 | 0.528 | 0.483 | 0.432 | 0.368 | 0.389 | 0.366 | 0.248 | 0.249 | 0.227 | 0.273 | 0.192 | 0.201
NCI-H3122 | 0.971 | 0.956 | 0.538 | 1.01 | 1.04 | 0.818 | 0.752 | 0.713 | 0.399 | 0.371 | 0.459 | 0.314 | 0.319 | 0.258 | 0.139 | 0.185 | 0.137 | 0.119
NCI-H2009 | 1.06 | 1.02 | 0.755 | 0.979 | 0.986 | 0.584 | 0.674 | 0.689 | 0.573 | 0.511 | 0.487 | 0.316 | 0.355 | 0.389 | 0.324 | 0.278 | 0.16 | 0.184
NCI-H1650 | 0.861 | 0.946 | 0.613 | 0.197 | 0.184 | 0.2 | 0.501 | 0.287 | 0.379 | 0.371 | 0.257 | 0.168 | 0.272 | 0.395 | 0.42 | 0.438 | 0.633 | 0.512
NCI-H2023 | 0.847 | 0.535 | 0.203 | 0.906 | 0.487 | 0.301 | 0.356 | 0.454 | 0.161 | 0.379 | 0.275 | 0.164 | 0.177 | 0.215 | 0.16 | 0.492 | 0.358 | 0.149
NCI-H2087 | 1.02 | 0.723 | 0.504 | 0.851 | 0.867 | 0.736 | 0.683 | 0.549 | 0.29 | 0.43 | 0.267 | 0.289 | 0.327 | 0.192 | 0.125 | 0.18 | 0.163 | 0.142
NCI-H322M | 0.892 | 0.728 | 0.622 | 1.28 | 1.01 | 1.03 | 0.922 | 0.765 | 0.622 | 0.739 | 0.57 | 0.453 | 0.711 | 0.643 | 0.527 | 0.478 | 0.453 | 0.416
EPLC-272H | 0.958 | 0.661 | 0.387 | 1.08 | 0.732 | 0.611 | 0.586 | 0.295 | 0.129 | 0.294 | 0.253 | 0.193 | 0.346 | 0.269 | 0.172 | 0.275 | 0.256 | 0.14
HARA | 0.952 | 0.822 | 0.42 | 1.16 | 1.15 | 0.78 | 0.453 | 0.459 | 0.201 | 0.539 | 0.334 | 0.332 | 0.471 | 0.394 | 0.258 | 0.694 | 0.301 | 0.188
EMC-BAC-2 | 0.848 | 0.613 | 0.549 | 0.968 | 0.862 | 0.747 | 0.382 | 0.317 | 0.298 | 0.476 | 0.368 | 0.334 | 0.664 | 0.663 | 0.654 | 0.569 | 0.571 | 0.436
LCLC-97TM1 | 1.03 | 0.586 | 0.203 | 0.589 | 0.477 | 0.146 | 0.728 | 0.378 | 0.179 | 0.38 | 0.338 | 0.159 | 0.216 | 0.168 | 0.161 | 0.179 | 0.104 | 0.117
NCI-H2405 | 0.982 | 0.681 | 0.351 | 0.895 | 0.909 | 0.578 | 1 | 0.667 | 0.418 | 0.401 | 0.285 | 0.184 | 0.701 | 0.482 | 0.308 | 0.486 | 0.37 | 0.271
NCI-H1975 | 0.911 | 0.672 | 0.374 | 0.33 | 0.27 | 0.179 | 0.702 | 0.458 | 0.276 | 0.412 | 0.292 | 0.162 | 0.398 | 0.296 | 0.178 | 0.331 | 0.207 | 0.165
HCC-78 | 0.937 | 0.666 | 0.345 | 0.338 | 0.32 | 0.252 | 0.334 | 0.337 | 0.246 | 0.683 | 0.571 | 0.282 | 0.623 | 0.462 | 0.344 | 0.596 | 0.558 | 0.275
NCI-H23 | 0.913 | 0.594 | 0.464 | 0.877 | 0.684 | 0.306 | 0.541 | 0.297 | 0.234 | 0.773 | 0.635 | 0.576 | 0.308 | 0.24 | 0.243 | 0.353 | 0.244 | 0.152
